Measured values published in article PMC10325900, “A conserved motif in the disordered linker of human MLH1 is vital for DNA mismatch repair and its function is diminished by a cancer family mutation” (Nucleic Acids Research, 2023).

Columns and labels:
MLH1-ΔConMot-PMS2 = biological target: T1, MLH1-ΔConMot-PMS2 (Homo sapiens, UniProt P40692+P54278, DEL377-396); experiment: DNA mismatch repair (MMR) complementation assay with peptide, MLH1-ΔConMot variant; assay type: biochemical
T1 construct: The pcDNA3 expression vector containing the entire open reading frame of human MLH1; expressed in transfected cells; host or cells: HEK293T (MLH1-deficient), transiently co-transfected
T1 sequence (P40692 with tags, fused parts or gaps DEL377-396): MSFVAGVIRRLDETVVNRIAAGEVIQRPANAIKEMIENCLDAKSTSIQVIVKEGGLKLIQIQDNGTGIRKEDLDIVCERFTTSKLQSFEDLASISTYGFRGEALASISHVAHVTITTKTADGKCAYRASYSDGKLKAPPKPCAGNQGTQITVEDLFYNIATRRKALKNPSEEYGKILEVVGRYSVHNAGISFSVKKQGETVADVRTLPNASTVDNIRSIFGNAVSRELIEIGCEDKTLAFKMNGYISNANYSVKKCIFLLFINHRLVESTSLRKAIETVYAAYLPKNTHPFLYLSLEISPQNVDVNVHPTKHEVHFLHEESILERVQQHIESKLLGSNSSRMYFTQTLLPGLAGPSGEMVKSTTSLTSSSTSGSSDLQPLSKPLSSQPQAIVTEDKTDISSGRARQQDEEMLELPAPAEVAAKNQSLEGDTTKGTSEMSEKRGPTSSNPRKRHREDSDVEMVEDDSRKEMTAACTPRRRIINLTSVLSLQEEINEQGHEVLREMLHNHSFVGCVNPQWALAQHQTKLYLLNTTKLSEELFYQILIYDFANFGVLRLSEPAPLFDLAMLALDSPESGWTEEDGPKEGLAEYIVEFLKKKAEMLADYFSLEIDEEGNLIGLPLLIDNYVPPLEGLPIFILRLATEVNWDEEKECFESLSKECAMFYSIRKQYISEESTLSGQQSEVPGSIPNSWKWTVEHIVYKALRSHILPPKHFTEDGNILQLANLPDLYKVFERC
T1 sequence (P54278 1-862 partner): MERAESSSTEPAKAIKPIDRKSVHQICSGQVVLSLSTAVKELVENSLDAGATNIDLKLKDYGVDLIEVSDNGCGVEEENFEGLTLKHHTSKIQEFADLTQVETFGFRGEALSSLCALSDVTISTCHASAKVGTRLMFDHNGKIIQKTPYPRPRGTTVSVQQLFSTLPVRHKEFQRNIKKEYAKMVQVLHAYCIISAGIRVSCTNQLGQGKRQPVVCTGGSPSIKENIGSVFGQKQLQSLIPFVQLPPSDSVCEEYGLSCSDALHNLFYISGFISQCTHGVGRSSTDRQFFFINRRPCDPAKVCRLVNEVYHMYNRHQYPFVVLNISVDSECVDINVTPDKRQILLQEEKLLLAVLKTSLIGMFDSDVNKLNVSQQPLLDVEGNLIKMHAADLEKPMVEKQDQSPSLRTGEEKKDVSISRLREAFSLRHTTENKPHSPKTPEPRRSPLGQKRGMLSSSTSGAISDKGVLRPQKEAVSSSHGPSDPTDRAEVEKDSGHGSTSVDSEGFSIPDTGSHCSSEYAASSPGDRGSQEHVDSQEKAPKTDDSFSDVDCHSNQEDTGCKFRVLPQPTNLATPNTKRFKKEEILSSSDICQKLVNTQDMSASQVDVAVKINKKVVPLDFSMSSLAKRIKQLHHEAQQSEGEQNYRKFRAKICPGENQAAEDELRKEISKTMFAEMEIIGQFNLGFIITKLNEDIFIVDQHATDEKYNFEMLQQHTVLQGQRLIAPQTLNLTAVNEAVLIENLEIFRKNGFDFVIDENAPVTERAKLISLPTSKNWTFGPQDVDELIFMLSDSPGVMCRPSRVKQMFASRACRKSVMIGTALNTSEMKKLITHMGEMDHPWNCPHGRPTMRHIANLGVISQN
Protocol: Mismatch repair activity was assessed as described in detail before ([79],[81]) (Supplementary Figure S3). […] Mismatched DNA plasmid substrate (Supplementary Figure S3) prepared according to previously published procedures ([81–83]) was added, and reactions in a final volume of 25 μl were incubated at 37°C for 15 min. Repair efficiency was scored by purifying the mismatched DNA plasmid from the reaction and assessing the fraction of homoduplex sequence by restriction digestion of the mismatched site using EcoRV. The substrate was additionally linearized with AseI.
For complementation assays with peptide, the indicated peptide(s) were used at stock concentrations of 50 or 500 μM in HEPES–KOH 20 mM pH 7.6 and supplemented to the MMR reactions.
Figure 4. Reaction of DNA mismatch repair to addition of ConMot peptide. (A) Nuclear extract of MLH1-proficient HEK293 cells was used for performing the DNA mismatch repair reaction. Four reactions were undertaken, with two reactions supplemented with either 7.5 μM or 75 μM ConMot-32 peptide. A negative control reaction was performed by omitting the 37°C repair incubation. (B) MMR reactions were performed with nuclear extract of MLH1-deficient HEK293T cells supplemented with extract of cells transfected either with wildtype MLH1-PMS2 (positive control) or with MLH1-ΔConMot-PMS2. To these MMR reactions, different peptides were added at a concentration of 75 μM: A ConMot-32 peptide (A), a Scramble-32 peptide (B) in which the conserved ConMot sequence is scrambled, and a short ConMot-20 peptide (C) that only contains the twenty highly conserved ConMot residues. The peptide sequences are given below the gel image. (C) The concentration-dependence of the MMR-activating effect of the ConMot-32 peptide observed in (B) was measured over a concentration range from 1–75 μM. (D) Theoretical binding curves of a ligand (peptide) to a protein were calculated for dissociation constants (KD) of 1, 5 and 10 μM for a protein concentration as present for MLH1-PMS2 in the MMR assay reactions (see also Supplementary Figure S3). Into this diagram, the average MMR activities (and standard deviations) measured in >3 of the experiment exemplarily shown in C were introduced as bars at ConMot-32 peptide concentrations of 1, 2.5, 7.5, 18 and 75 μM.
Second, we used extract of the repair-deficient cell line HEK293T supplemented with either wildtype MutLα (MLH1-PMS2) or the ΔConMot deletion variant, corresponding to experiment shown in Figure 2B. In this experiment, we again added ConMot peptide.
We investigated the effect of the ConMot peptide more closely by titrating the required peptide concentrations for activation. We determined that the mismatch repair reactions performed in this study contained approximately 280 fmol MLH1 (Supplementary Figure S4A and B), which is in good agreement with previous quantifications of MLH1-PMS2 in cells and extracts ([96]). […] Dissociation constants (KD) for peptides to proteins are typically in the range of 1–10 μM ([97]). We compared the measured concentration-dependent MMR activities with theoretical binding curves of (peptide) ligands to (protein) substrates for KD values of 1, 5 and 10 μM (Supplementary Figure S4C) at the determined MLH1 concentration. […] It is therefore plausible that a binding reaction of the ConMot peptide (to a protein) underlies the restauration of MMR activity. […]
Deletion C on M ot (∆Co nMot) c.1129_1188del CTGCAGCCTCTGAGCAAA […]
Del et i on comp are (∆Compare) c.1221_1280del […] ACTGGACAGGGGTTTGCT
Scramble c.1147_1160delinsGAC ggtacgtTCCCGGGAACAGAAGCT atagtgtcCTGGTGGGCATAGACCT
p.(M383_D387delinsDTMVR) ACTATGGTAC G T TATC
ConMot hy bri d gcataTCTGCAGCCTCTGAGCAA acagg[…]
Supplementary Table 1: Analyzed variant inf ormation.
Variant descriptions confer to HGVS format and refer to the MLH1 reference cDNA (NM_000249.4) […]

yMLH1-yPMS1 = system: yMLH1-yPMS1; parameters: method as in Torres et al. [100]; details: 25mer yeast peptide, molar ratio 0-250-500-1000 to yMLH1-PMS1, MLH1-PMS2 35 nM, 1 mM Mn2+; ref Torres et al. [100]; cited from earlier work
[1] = biological target: MLH1-ΔConMot-PMS2 (MutLα heterodimer with the ConMot deletion variant of MLH1) (human) (UniProt P40692)

Molecule: SGSSDMVQFEKLKDRRSQDATYVAHLQPLSKP [Scramble-32]
- restoration of DNA mismatch repair activity of the ΔConMot variant (MLH1-ΔConMot-PMS2; peptide 75 μM (Figure 4B), HEK293T nuclear extract 50 μg + 5 μg transfected extract, 25 μl, 37°C, 15 min, EcoRV/AseI digestion, agarose gel): did not restore MMR activity

Molecule: KAKRQENKL VRI D ASQAKITSFLSS [25mer]
- effect of peptide on endonuclease activation of yMLH1-yPMS1 (yMLH1-yPMS1): inhibiting endonuclease activit y

Molecule: KVYAHQMVRTDSREQKLDAF [ConMot-20]
- effect of 20mer-ConMot on MMR restauration by the 32mer-ConMot (MLH1-ΔConMot-PMS2; Figure 4B, peptides at 75 μM, combined peptides, 37°C, 15 min): did not affect MMR restauration
- effect of peptide on MMR (summary in Supplementary Table 2) (MLH1-ΔConMot-PMS2; molar ratio 0-860-2300-8600 to hMLH1-PMS2, Tris-HCl pH 7.5, 5 mM Mg2+, 1.5 mM ATP): inactive

Molecule: SGSSDKVYAHQMVRTDSREQKLDAFLQPLSK [ConMot-32 peptide (32-mer peptide containing the sequence of the MLH1-ConMot)]
- KD read by comparing the concentration-dependent MMR restoration with theoretical binding curves of a peptide ligand to a protein at the determined MLH1 concentration [1]: 7.5 µM
